Experimental data from ChEMBL document CHEMBL1151310, “Inhibition of cAMP-phosphodiesterase by biflavones of Ginkgo biloba in rat adipose tissue” (J Nat Prod, 1998).
pIC50: −log10 of the molar value.

Legend:
Format in all cases: tissue-based
Rattus norvegicus [1] = organism: Rattus norvegicus; test: Inhibition of PDE in Sprague-Dawley rat epididymal adipose tissue assessed as [14C]adenosine recovery at 0.05 to 3 ug/ml by liquid scintillation counting
Rattus norvegicus [2] = organism: Rattus norvegicus; test: Inhibition of PDE in Sprague-Dawley rat epididymal adipose tissue assessed as [14C]adenosine recovery at 100 uM by liquid scintillation counting
Rattus norvegicus [3] = organism: Rattus norvegicus; test: Inhibition of PDE in Sprague-Dawley rat epididymal adipose tissue assessed as [14C]adenosine recovery at 1 mM by liquid scintillation counting
Rattus norvegicus [4] = organism: Rattus norvegicus; test: Inhibition of PDE in Sprague-Dawley rat epididymal adipose tissue assessed as [14C]adenosine recovery at 200 uM by liquid scintillation counting
[5] = (§1) Inhibition of PDE in Sprague-Dawley rat epididymal adipose tissue assessed as [14C]adenosine recovery by liquid scintillation counting
Rattus norvegicus [6] = organism: Rattus norvegicus; test: as §1; conditions: dose or concentration not given here
Rattus norvegicus [7] = organism: Rattus norvegicus; test: Inhibition of PDE in Sprague-Dawley rat epididymal adipose tissue assessed as [14C]adenosine recovery at 3.6 uM by liquid scintillation counting

COc1ccc(-c2cc(=O)c3c(O)cc(O)c(-c4cc(-c5cc(=O)c6c(O)cc(OC)cc6o5)ccc4OC)c3o2)cc1
inhibition (Rattus norvegicus [1]): 10%

COc1ccc(Cc2nccc3cc(OC)c(OC)cc23)cc1OC
inhibition (Rattus norvegicus [2]): > 90%

Cn1c(=O)c2[nH]cnc2n(C)c1=O
inhibition (Rattus norvegicus [3]): > 90%

O=c1c(O)c(-c2ccc(O)cc2)oc2cc(O)cc(O)c12
inhibition (Rattus norvegicus [4]): > 90%

O=c1cc(-c2ccc(O)c(-c3c(O)cc(O)c4c(=O)cc(-c5ccc(O)cc5)oc34)c2)oc2cc(O)cc(O)c12 [AMENTOFLAVONE]
pIC50 [5]: 6.57 | inhibition (Rattus norvegicus [6]): 85%

COc1ccc(-c2cc(=O)c3c(O)cc(O)cc3o2)cc1-c1c(O)cc(O)c2c(=O)cc(-c3ccc(O)cc3)oc12 [BILOBETIN]
pIC50 [5]: 6.44 | inhibition (Rattus norvegicus [6]): 84%

COc1cc(O)c2c(=O)cc(-c3ccc(O)c(-c4c(O)cc(O)c5c(=O)cc(-c6ccc(O)cc6)oc45)c3)oc2c1 [SEQUOIAFLAVONE]
inhibition (Rattus norvegicus [7]): 94% | pIC50 [5]: 6.00
